Results on one compound are retold here after patent publication US20050032904A1, “Composition and use of allylamine derivatives” (priority 2003, published 2005).

The test system of data set [1] is COLO 205 tumor xenografts. The experiment in a line: Treatment of COLO 205-derived xenografts in vivo. Set-up: species or system nude mouse. Here is the method:
Genomic DNAs extracted from TB-treated COLO 205 were examined by gel electrophoresis. […] DNA fragmentation was examined at 24 h after drug treatment. In the lanes 2 and 8, cells received mock treatment as controls. […] Comparisons were subjected to ANOVA followed by Fisher's least significant difference test. […] Since, retardation of the cell cycle and/or activation of the cellular apoptotic response are two major mechanisms preventing tumor growth, we examined the TB effect on the cell cycle and apoptosis occurrence of the solid tumor derived from the implanted COLO 205. The COLO-205 cells (5×10^6) in 0.1 ml RPMI 1640 were injected subcutaneously between the scapulae of each nude mouse (purchased from National Science Council animal center, Taipei). […]

A further data set concerns COLO 205. The experiment in a line: Determination of cell growth curve (cell counting). Type of data set: cell-based, human. Here is the method: The effect of TB on the growth of various human cancer cells […]. In FIG. 1, (A) COLO205, (B) HT29, (C) HepG2, (D) Hep3B, (E) HL60, and (F) normal human fibroblast cells were treated with various concentrations of TB (30 to 120 μM). Media with or without TB were renewed daily until cell counting. Three samples were analyzed in each group. Values represent mean±S.E. The cells were cultured for 5 days with or without TB (30-120 μM), and then the cells were harvested and counted. […] The COLO 205 cells were released from quiescence by incubation in culture media supplemented with 10% FCS and 0.05% DMSO without or with 90 μM TB for 24 h. After 24 h treatment with TB, the cells were washed twice with PBS, replaced with fresh 10% FCS without DMSO or TB. […] The cultured cell numbers in DMSO- and TB-treated group were counted every day. Three samples were analyzed in each group, and values represent the mean±S.E. Human colon cancer, hepatoma, leukemia, and human normal fibroblast cells at a density of 1×10^4 were plated in 35-mm Petri dishes. TB was added at the indicated doses in 0.05% dimethyl-sulfoxide (DMSO). For control specimens, the same volume of the 0.05% DMSO without TB was added. Media with and without TB were changed daily until cell counting

For data set [2], the system named is human gingival fibroblasts. Briefly: Determination of cell growth curve (cell counting). The class given is cell-based. The following applies: 5 days. Here is the method: The effect of TB on the growth of various human cancer cells wasexamined. In FIG. 1, (A) COLO205, (B) HT29, (C) HepG2, (D) Hep3B, (E) HL60, and (F) normal human fibroblast cells were treated with various concentrations of TB (30 to 120 μM). Media with or without TB were renewed daily until cell counting. Three samples were analyzed in each group. Values represent mean±S.E. The cells were cultured for 5 days with or without TB (30-120 μM), and then the cells were harvested and counted. […] However, when TB concentration was increased to 120 μM, a 50% growth inhibition was observed.
Human colon cancer, hepatoma, leukemia, and human normal fibroblast cells at a density of 1×10^4 were plated in 35-mm Petri dishes. TB was added at the indicated doses in 0.05% dimethyl-sulfoxide (DMSO). For control specimens, the same volume of the 0.05% DMSO without TB was added. Media with and without TB were changed daily until cell counting

For data set [3] the following is noted: cited from earlier work.

In general, inhibition refers to the percentage by which the read-out fell short of the control. Regarding `CN(C/C=C/C#CC(C)(C)C)Cc1cccc2ccccc12` [TB, 1-Naphthalenemethanamine, N-(6,6-dimethyl-2-hepten-4-ynyl)-N-methyl-, (E)-], the “cytotoxicity for the vital organs” value in data set [1] (50 mg/Kg body weight) is “not cytotoxic for the vital organs”. Also, the “tumor volume vs. vehicle (DMSO plus peanut oil)” value in data set [1] (TB 50 mg/kg, ND 5 mg/kg, intraperitoneal, 3 times per week for 6 weeks) is given as “reduction in tumor volume”. Further, the “tumor size of the COLO 205 tumor mass” value in data set [1] (intraperitoneal TB 50 mg/kg) is “substantial decline in tumor size”. Also, the “duration of inhibition of cell proliferation after removal of TB” value in the data set on COLO 205 (90 μM TB for 24 h, then removed) was “at least 7 days”. In the data set on COLO 205 (90 μM TB for 24 h, then washed and replaced with fresh 10% FCS), the “reversibility of TB-induced inhibition of cell proliferation” value is “not reversed by removal of TB”. Besides, the cell number result in the data set on COLO 205 (TB 30-120 μM, 5 days, media renewed daily, dose-dependent) is recorded as “decreased cell number”. Also, the “cell growth at TB 60 μM” value in the data set with COLO 205 (TB concentration increased to 60 μM, 5 days) is listed as “cell growth arrest or cell death”. The inhibition at 120 µM in data set [2] (Homo sapiens, Fibroblast, 120 h, TB 120 μM, medium changed daily, read-out: growth inhibition (reduction of cell count)) was determined as 50%. The growth rate result in data set [2] (TB 30-60 μM) is “did not inhibit the growth rate”. The tissue accumulation entry in data set [3] (adipose tissues, keratin-rich tissues (dermis, epidermis, nail) and other organ tissues) is reported as “extensively accumulates”. For the same compound, the “tissue concentrations relative to plasma” value in data set [3] (as early as 1 day after stop of medication) was “exceeded that of plasma”.
